Data taken from patent US20260193294A1, “POLYPEPTIDE INHIBITOR, AND PREPARATION METHOD THEREFOR AND USE THEREOF” (SHANGHAI HANSOH BIOMEDICAL CO., LTD., priority 2022, published 2026).
Like-named read-outs stand apart in the source and are kept apart here.

Legend:
[1] = in vitro; assay type: in vitro ADME; conditions: 37° C.; for half-life at 0.5 μM: in vitro half-life, read-out: t1/2 (converted); for remaining at 4 h, 0.5 µM: read-out: Residual ratio % at 4 h
Procedure: To study the stability of the compounds of the examples in the plasmas of mice, rats, dogs and humans.
Preparation of plasma: Animal or human whole blood was collected, then put into a test tube containing an anticoagulant, and centrifuged at 3500 rpm for 10 min, and the upper pale yellow plasma was collected; • working solution of 10 μM test compound: a stock solution was prepared with DMSO, and the working solution was prepared with 100 mM phosphate buffer; • working solution of 10 μM positive control: • procaine: 2.36 mg of procaine was weighed and diluted into a 10 mM stock solution with 1 mL of DMSO. 10 μL of the 10 mM stock solution was pipetted into 1 mL of 100 mM phosphate buffer, such that the final concentration was 100 μM; and • enalapril: 4.93 mg of enalapril was weighed and diluted into a 10 mM stock solution with 1 mL of DMSO; and 10 μL of the 10 mM stock solution was pipetted into 1 mL of 100 mM phosphate buffer, such that the final concentration was 100 μM.
In a 96-well plate, 285 μL of plasma and 15 μL of 10 μM compound (test compound, and positive control) were successively added and incubated at 37° C.
40 μL was taken at 0, 15, 30, 60, 90, and 120 min (sampling points could be fine-tuned), respectively, and 160 μL of an acetonitrile stop solution containing an internal standard was added.
After centrifugation (3500 rpm, 10 min), 50 μL of the supernatant was taken, diluted by adding 50 μL of DDH2O, and then injected for LC-MS/MS.
• Instrument: Shimadzu LC-20 AD • Chromatographic column: Phenomenex Gemiu® C18 (50*4.6 mm, 5 μm particle size) • Mobile phase: A: acetonitrile, B: 0.1% formic acid solution • Elution gradient: […]: 5% A→95% A, 2.0-2.1 min: […] • Flow rate: 0.8 mL/min • Run time: 5.0 min • Injection volume: 5 μL
• Instrument: API4000 liquid chromatography mass spectrometer, AB, US • Ion source: electrospray ionization source (ESI) • Drying gas: N2, temperature 500° C. • Electrospray voltage: 5500V • Detection mode: positive ion detection • Scan mode: multi reaction monitoring (MRM) mode • Scan time: 0.1 s
All calculations were carried out using Microsoft Excel. The peak area ratio was determined by an extracted ion chromatogram.
The residual percentage of the compound at each time point was calculated by the following equation: Residual percentage at t hours (%)=peak area ratio at t hours/peak area ratio at 0 hour×100%, in which the peak area ratio at t hr was the peak area ratio of the […] at t min; and • the slope value k was determined by linear regression on the natural logarithm of the curve of the residual percentage of the parent drug versus the incubation time.
In vitro half-life (in vitro t1/2) was determined by the slope value: […]

[2] = test system: activation of STAT3 phosphorylation by hIL23 in DB cells; experiment: Blocking the activation of STAT3 phosphorylation by hIL23 in DB cells (p-STAT3 ELISA); assay type: cell-based, Human; conditions: DB cells stimulated by rhIL-23 0.5 nM, half an hour; read-out: pStat3 IC50
Procedure: To determine the inhibitory activity of the compounds of the present disclosure on the activation of STAT3 phosphorylation by hIL23 in DB cells
The compounds produced above were added to DB (ATCC Cat #CRL-2289) cells to inhibit the signal transduction of rhIL-23 cytokine. The screening of compounds was carried out by a multi-well plate (suitable for ELISA assay). Generally, in the presence of some of the above compounds of the present disclosure, 6.25×10^6 cells/ml of DB cells were stimulated by rhIL-23 (0.5 nM, R&D SYSTEMS) in RPMI medium (Invitrogen) containing 10% of FBS, and after half an hour, lysis was carried out on ice using 50 μL of 2×lysis buffer (CST). The content of p-STAT3 in the lysate was determined by PathScan Phospho-Stat3 (Tyr705) Sandwich ELISA Kit (CST Cat #7300C), so as to calculate the activity of the compounds of the present disclosure in blocking rhIL23 signal transduction in DB cells.
The inhibition rate was calculated as follows: […]
By using log (inhibitor) vs. response—Variable slope (four parameters) in Graphpad, the data of ELISA experiment results were subjected to non-linear regression fitting to fit a curve and obtain the IC50 value.

CC(=O)NCCCC[C@@H]1NC(=O)[C@H](Cc2c[nH]c3c(C)cccc23)NC(=O)[C@H]([C@@H](C)O)NC(=O)[C@H](CC(N)=O)NC(=O)[C@@H](NC(C)=O)C(C)(C)SSC(C)(C)[C@@H](C(=O)N[C@@H](Cc2ccc(OCCN)cc2)C(=O)N[C@@H](Cc2ccc3ccccc3c2)C(=O)NC2(C(=O)N[C@@H](CCC(=O)O)C(=O)N[C@@H](CC(N)=O)C(=O)N[C@@H](Cc3cccnc3)C(=O)N(C)CCNC(=O)CCOCCOCC[N+](C)(C)CCNC(=O)COCCOCCNC(=O)COCCOCCNC(=O)CC[C@H](NC(=O)CCCCCCCCCCCCCCC(=O)O)C(=O)O)CCC(F)(F)CC2)NC1=O [Example 1-16-1]
half-life at 0.5 μM ([1]; Dog plasma): 3.15 days
remaining at 4 h, 0.5 µM ([1]; Dog plasma): 90.5%
half-life at 0.5 μM ([1]; Rat plasma): 25.1 days
remaining at 4 h, 0.5 µM ([1]; Rat plasma): 104%
half-life at 0.5 μM ([1]; mouse, Mice plasma): 83.6 days
remaining at 4 h, 0.5 µM ([1]; mouse, Mice plasma): 104%
IC50 [2]: 4.8 pM
